Experimental data reported in patent US8076487B2, “Pyridone derivative and herbicide” (Kumiai Chemical Industry Co., Ltd., priority 2006, dated 2011).

Key:
Format in all cases: in vivo
[1] = tested on: Japanese bulrush (Scirpus juncoides Roxb.); assay: Test Example 1: herbicidal effect by soil application to paddy field; settings: for herbicidal effect, Scirpus juncoides Roxb.: paddy field soil application, active ingredient 1,000 g per 1 hectare, wettable powder added dropwise to water surface the day after sowing, examined on the 21st day after application
How it was run: (§1)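 Under greenhouse conditions, seeds sown on puddled paddy soil in 100 cm2 pots under 3 cm of standing water received the test compound; injury was assessed with a standard scoring scheme three weeks (day 21) after treatment.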

[2] = tested on: early watergrass (Echinochloa oryzicola Vasing); assay: as above; settings: for herbicidal effect, Echinochloa oryzicola Vasing: paddy field soil application, active ingredient 1,000 g per 1 hectare, wettable powder added dropwise to water surface the day after sowing, examined on the 21st day after application
How it was run: as §1

[3] = tested on: heartshape false pickerelweed (Monochoria vaginalis (Burm.f.) C.Presl); assay: as above; settings: for herbicidal effect, Monochoria vaginalis (Burm. f.) C. Presl: paddy field soil application, active ingredient 1,000 g per 1 hectare, wettable powder added dropwise to water surface the day after sowing, examined on the 21st day after application
How it was run: as §1

[4] = tested on: barnyardgrass (Echinochloa crus-galli (L.) P. Beauv. var. crus-galli); assay: Test Example 2: herbicidal effect by soil application to upland field; settings: soil surface spray, upland field soil, 1,000 g active ingredient per hectare, 21st day after application
How it was run: (§2)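 In this soil-application test, sown and soil-covered pots are sprayed uniformly with the formulation diluted in water, giving 1,000 g of active ingredient per ha in a volume of 1,000 L per ha. Plants then grow in a greenhouse for 21 days before herbicidal scoring by a standard scale.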

[5] = tested on: green foxtail (Setaria viridis (L.) P. Beauv.); assay: as above; settings: soil surface spray, upland field soil, 1,000 g active ingredient per hectare, 21st day after application
How it was run: as §2

[6] = tested on: slender amaranth (Amaranthus viridis L.); assay: as above; settings: soil surface spray, upland field soil, 1,000 g active ingredient per hectare, 21st day after application
How it was run: as §2

[7] = tested on: velvetleaf (Abutilon theophrasti medicus); assay: as above; settings: soil surface spray, upland field soil, 1,000 g active ingredient per hectare, 21st day after application
How it was run: as §2

[8] = tested on: barnyardgrass (Echinochloa crus-galli (L.) P. Beauv. var. crus-galli); assay: Test Example 3: herbicidal effect by application to upland field (foliage treatment); settings: 14th day after application; for herbicidal effect, Barnyardgrass: foliage treatment, 1,000 g active ingredient per 1 hectare, greenhouse
How it was run: (§3)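 Two weeks after sowing in field soil under greenhouse conditions, seedlings receive a top-down foliar spray of wettable powder diluted in water at an active-ingredient rate of 1,000 g per hectare. Effect is rated against a standard 14 days post-treatment.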

[9] = tested on: green foxtail (Setaria viridis (L.) P. Beauv.); assay: as above; settings: 14th day after application; for herbicidal effect, Green Foxtail: foliage treatment, 1,000 g active ingredient per 1 hectare, greenhouse
How it was run: as §3

[10] = tested on: slender amaranth (Amaranthus viridis L.); assay: as above; settings: 14th day after application; for herbicidal effect, Slender Amaranth: foliage treatment, 1,000 g active ingredient per 1 hectare, greenhouse
How it was run: as §3

[11] = tested on: velvetleaf (Abutilon theophrasti medicus); assay: as above; settings: 14th day after application; for herbicidal effect, Velvetleaf: foliage treatment, 1,000 g active ingredient per 1 hectare, greenhouse
How it was run: as §3

[12] = foliage treatment, plants grown two weeks, 1,000 g active ingredient per hectare
[13] = soil application to paddy field, rated by standard of Table 34

Structure (SMILES) | herbicidal effect, Scirpus juncoides Roxb. [1] | herbicidal effect, Echinochloa oryzicola Vasing [2] | herbicidal effect, Monochoria vaginalis (Burm. f.) C. Presl [3] | herbicidal effect (index), Barnyardgrass [4] | herbicidal effect (index), Green Foxtail [5] | herbicidal effect (index), Slender Amaranth [6] | herbicidal effect (index), Velvetleaf [7] | herbicidal effect, Barnyardgrass [8] | herbicidal effect, Green Foxtail [9] | herbicidal effect, Slender Amaranth [10] | herbicidal effect, Velvetleaf [11] | herbicidal effect (index), Barnyardgrass [8, 12] | herbicidal effect (index), Green Foxtail [9, 12] | herbicidal effect (index), Slender Amaranth [10, 12] | herbicidal effect (index), Velvetleaf [11, 12] | herbicidal effect (index), Scirpus juncoides Roxb. [1, 13] | herbicidal effect (index), Echinochloa oryzicola Vasing [2, 13] | herbicidal effect (index), Monochoria vaginalis (Burm.f.) C.Presl [3, 13]
Cn1ncc(C(=O)c2ccc(C(F)(F)F)n(C3CCCC3)c2=O)c1O [IV-21] | 5 (90% or more of herbicidal effect and crop phytotoxicity) | 5 (90% or more of herbicidal effect and crop phytotoxicity) | 5 (90% or more of herbicidal effect and crop phytotoxicity) | 3 (50 to less than 70% of herbicidal effect and crop phytotoxicity) | 5 (90% or more of herbicidal effect and crop phytotoxicity) | 5 (90% or more of herbicidal effect and crop phytotoxicity) | 5 (90% or more of herbicidal effect and crop phytotoxicity) | 5 (90% or more of herbicidal effect and crop phytotoxicity) | 4 (70 to less than 90% of herbicidal effect and crop phytotoxicity) | 5 (90% or more of herbicidal effect and crop phytotoxicity) | 5 (90% or more of herbicidal effect and crop phytotoxicity) | – | – | – | – | – | – | –
O=C1CCCC(O)=C1C(=O)c1ccc(C(F)(F)F)n(-c2ccc(OC(F)(F)F)cc2)c1=O [I-79] | 5 (90% or more of herbicidal effect and crop phytotoxicity) | 5 (90% or more of herbicidal effect and crop phytotoxicity) | 5 (90% or more of herbicidal effect and crop phytotoxicity) | 5 (90% or more of herbicidal effect and crop phytotoxicity) | 5 (90% or more of herbicidal effect and crop phytotoxicity) | 5 (90% or more of herbicidal effect and crop phytotoxicity) | 5 (90% or more of herbicidal effect and crop phytotoxicity) | – | – | – | – | 5 (90% or more of herbicidal effect and crop phytotoxicity) | 5 (90% or more of herbicidal effect and crop phytotoxicity) | 5 (90% or more of herbicidal effect and crop phytotoxicity) | 5 (90% or more of herbicidal effect and crop phytotoxicity) | – | – | –
Cn1ncc(C(=O)c2ccc(C(F)(F)F)n(CC3CCCO3)c2=O)c1O (stereo not shown) [IV-129] | 5 (90% or more of herbicidal effect and crop phytotoxicity) | 5 (90% or more of herbicidal effect and crop phytotoxicity) | 5 (90% or more of herbicidal effect and crop phytotoxicity) | 4 (70 to less than 90% of herbicidal effect and crop phytotoxicity) | 3 (50 to less than 70% of herbicidal effect and crop phytotoxicity) | 5 (90% or more of herbicidal effect and crop phytotoxicity) | 5 (90% or more of herbicidal effect and crop phytotoxicity) | 5 (90% or more of herbicidal effect and crop phytotoxicity) | 4 (70 to less than 90% of herbicidal effect and crop phytotoxicity) | 5 (90% or more of herbicidal effect and crop phytotoxicity) | 5 (90% or more of herbicidal effect and crop phytotoxicity) | – | – | – | – | – | – | –
CCn1c(C(F)(F)F)ccc(C(=O)C2=C(Sc3ccccc3)C3CCC(C3)C2=O)c1=O (stereo not shown) [III-15] | 5 (90% or more of herbicidal effect and crop phytotoxicity) | 5 (90% or more of herbicidal effect and crop phytotoxicity) | 5 (90% or more of herbicidal effect and crop phytotoxicity) | 5 (90% or more of herbicidal effect and crop phytotoxicity) | 5 (90% or more of herbicidal effect and crop phytotoxicity) | 5 (90% or more of herbicidal effect and crop phytotoxicity) | 5 (90% or more of herbicidal effect and crop phytotoxicity) | 5 (90% or more of herbicidal effect and crop phytotoxicity) | 5 (90% or more of herbicidal effect and crop phytotoxicity) | 5 (90% or more of herbicidal effect and crop phytotoxicity) | 5 (90% or more of herbicidal effect and crop phytotoxicity) | – | – | – | – | – | – | –
O=C1CCCC(O)=C1C(=O)c1cnccn1 [Comparative Compound 1, reference compound] | – | – | – | 1 (10 to less than 30% of herbicidal effect and crop phytotoxicity) | 1 (10 to less than 30% of herbicidal effect and crop phytotoxicity) | 0 (0 to less than 10% of herbicidal effect and crop phytotoxicity) | 1 (10 to less than 30% of herbicidal effect and crop phytotoxicity) | 0 (0 to less than 10% of herbicidal effect and crop phytotoxicity) | 0 (0 to less than 10% of herbicidal effect and crop phytotoxicity) | 1 (10 to less than 30% of herbicidal effect and crop phytotoxicity) | 2 (30 to less than 50% of herbicidal effect and crop phytotoxicity) | – | – | – | – | 0 (0 to less than 10% of herbicidal effect and crop phytotoxicity) | 1 (10 to less than 30% of herbicidal effect and crop phytotoxicity) | 0 (0 to less than 10% of herbicidal effect and crop phytotoxicity)
CCCCCCCC(=O)Oc1c(C(=O)c2ccc(C(F)(F)F)n(CC3CCCO3)c2=O)cnn1C (stereo not shown) [IV-130] | 5 (90% or more of herbicidal effect and crop phytotoxicity) | 5 (90% or more of herbicidal effect and crop phytotoxicity) | 5 (90% or more of herbicidal effect and crop phytotoxicity) | 4 (70 to less than 90% of herbicidal effect and crop phytotoxicity) | 4 (70 to less than 90% of herbicidal effect and crop phytotoxicity) | 5 (90% or more of herbicidal effect and crop phytotoxicity) | 5 (90% or more of herbicidal effect and crop phytotoxicity) | 5 (90% or more of herbicidal effect and crop phytotoxicity) | 4 (70 to less than 90% of herbicidal effect and crop phytotoxicity) | 5 (90% or more of herbicidal effect and crop phytotoxicity) | 4 (70 to less than 90% of herbicidal effect and crop phytotoxicity) | – | – | – | – | – | – | –
CS(=O)(=O)CCn1c(C(F)(F)F)ccc(C(=O)C2=C(O)C3CCC(C3)C2=O)c1=O (stereo not shown) [III-30] | – | – | – | 5 (90% or more of herbicidal effect and crop phytotoxicity) | 5 (90% or more of herbicidal effect and crop phytotoxicity) | 5 (90% or more of herbicidal effect and crop phytotoxicity) | 5 (90% or more of herbicidal effect and crop phytotoxicity) | 5 (90% or more of herbicidal effect and crop phytotoxicity) | 5 (90% or more of herbicidal effect and crop phytotoxicity) | 5 (90% or more of herbicidal effect and crop phytotoxicity) | 5 (90% or more of herbicidal effect and crop phytotoxicity) | – | – | – | – | – | – | –
C=CCn1c(C(F)(F)F)ccc(C(=O)C2=C(O)C(C)(C)C(=O)C(C)(C)C2=O)c1=O [II-42] | – | – | – | 5 (90% or more of herbicidal effect and crop phytotoxicity) | 3 (50 to less than 70% of herbicidal effect and crop phytotoxicity) | 5 (90% or more of herbicidal effect and crop phytotoxicity) | 5 (90% or more of herbicidal effect and crop phytotoxicity) | 5 (90% or more of herbicidal effect and crop phytotoxicity) | 3 (50 to less than 70% of herbicidal effect and crop phytotoxicity) | 5 (90% or more of herbicidal effect and crop phytotoxicity) | 5 (90% or more of herbicidal effect and crop phytotoxicity) | – | – | – | – | – | – | –
